Data reported in patent US5043332A, “Novel 11β-substituted -19-nor-steriods” (priority 1981, dated 1991).

How the values were obtained:
[1] = biological target: T1, Androgen receptor of prostate of rats (Rattus norvegicus, UniProt P15207); assay: Androgen receptor binding (displacement of tritiated product P)
T1 construct: The prostates were removed, weighed and homogenized at 0° C; from tissue; host or cells: rat prostate, 105,000 g supernatant (castrated male Sprague-Dawley rats)
T1 sequence (P15207 1-902): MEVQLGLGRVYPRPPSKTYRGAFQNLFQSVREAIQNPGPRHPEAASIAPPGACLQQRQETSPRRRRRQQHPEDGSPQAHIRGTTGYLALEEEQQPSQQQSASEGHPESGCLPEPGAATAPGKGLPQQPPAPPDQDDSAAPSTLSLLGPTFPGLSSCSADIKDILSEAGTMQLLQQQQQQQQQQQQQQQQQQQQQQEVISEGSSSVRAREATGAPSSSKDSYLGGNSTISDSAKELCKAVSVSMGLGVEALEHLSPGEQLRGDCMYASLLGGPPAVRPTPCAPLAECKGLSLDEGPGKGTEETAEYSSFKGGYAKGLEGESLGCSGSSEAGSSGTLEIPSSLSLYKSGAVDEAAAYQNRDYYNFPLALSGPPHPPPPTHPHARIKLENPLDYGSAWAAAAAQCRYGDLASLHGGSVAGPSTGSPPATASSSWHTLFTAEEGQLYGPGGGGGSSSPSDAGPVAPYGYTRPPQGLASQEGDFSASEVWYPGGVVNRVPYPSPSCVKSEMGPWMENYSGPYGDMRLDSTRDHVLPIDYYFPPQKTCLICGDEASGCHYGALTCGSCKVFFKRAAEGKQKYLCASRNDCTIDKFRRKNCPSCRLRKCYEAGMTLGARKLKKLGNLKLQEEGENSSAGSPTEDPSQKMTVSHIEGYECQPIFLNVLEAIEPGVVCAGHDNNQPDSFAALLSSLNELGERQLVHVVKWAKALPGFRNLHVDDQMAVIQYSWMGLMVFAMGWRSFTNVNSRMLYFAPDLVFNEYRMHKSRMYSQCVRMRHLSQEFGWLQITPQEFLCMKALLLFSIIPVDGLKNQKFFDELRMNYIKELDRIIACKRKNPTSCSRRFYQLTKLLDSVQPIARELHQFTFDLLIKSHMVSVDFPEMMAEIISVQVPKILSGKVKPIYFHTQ
Experimental: B. Androgen receptor of prostate of rats
Male Sprague-Dawley EPOS rats weighing of 160 to 200 g were castrated and 24 hours later, the animals were killed. The prostates were removed, weighed and homogenized at 0° C. with a polytetrafluoroethylene-glass Potter with a buffered TS solution (Tris, 10 mM, 0.25M Saccharose, HCl-pH of 7.4) using 1 g of tissue per 5 ml of TS. The homogenate was then ultracentrifuged at 105,000 g for 60 […] (T) of product P or 17α-methyl-Δ^4,9,11 -estratriene-17β-ol-3-one in the presence of increasing concentration (0-1,000×10^-9 M) of either cold P, cold testosterone or the test compound. The concentration of tied tritiated (B) was measured for each incubate by the technique of adsorption on carbon-dextran.
(§1) The calculation of the relative affinity of […] (ARL) was identical for all of the above receptor tests. One traced the following two curves: the percentage of tied tritiated hormone B/T as a function of the logarithm of the cold hormone concentration and B/T as a function of the logarithm of the concentration of the cold test product. One determined the line of the equation. [formula]
(§2) The intersection of the I50 line and the curves permits one to determine the concentrations of the cold hormone of the reference (CH) and the cold test compound (CX) which inhibit by 50% the tieing of tritiated hormone with the receptor. The relative affinity of tieing (ARL) of the test product was determined by the equation: [formula]

[2] = biological target: T2, Gluocorticoid receptor of thymus of rats (Rattus norvegicus, UniProt P06536); assay: Glucocorticoid receptor binding (displacement of tritiated dexamethasone); conditions: incubation 4 H at 0° C.
T2 construct: The thymus were removed and homogenized at 0° C; from tissue; host or cells: rat thymus, 105,000 g supernatant (adrenalectomized male Sprague-Dawley rats)
T2 sequence (P06536 1-795): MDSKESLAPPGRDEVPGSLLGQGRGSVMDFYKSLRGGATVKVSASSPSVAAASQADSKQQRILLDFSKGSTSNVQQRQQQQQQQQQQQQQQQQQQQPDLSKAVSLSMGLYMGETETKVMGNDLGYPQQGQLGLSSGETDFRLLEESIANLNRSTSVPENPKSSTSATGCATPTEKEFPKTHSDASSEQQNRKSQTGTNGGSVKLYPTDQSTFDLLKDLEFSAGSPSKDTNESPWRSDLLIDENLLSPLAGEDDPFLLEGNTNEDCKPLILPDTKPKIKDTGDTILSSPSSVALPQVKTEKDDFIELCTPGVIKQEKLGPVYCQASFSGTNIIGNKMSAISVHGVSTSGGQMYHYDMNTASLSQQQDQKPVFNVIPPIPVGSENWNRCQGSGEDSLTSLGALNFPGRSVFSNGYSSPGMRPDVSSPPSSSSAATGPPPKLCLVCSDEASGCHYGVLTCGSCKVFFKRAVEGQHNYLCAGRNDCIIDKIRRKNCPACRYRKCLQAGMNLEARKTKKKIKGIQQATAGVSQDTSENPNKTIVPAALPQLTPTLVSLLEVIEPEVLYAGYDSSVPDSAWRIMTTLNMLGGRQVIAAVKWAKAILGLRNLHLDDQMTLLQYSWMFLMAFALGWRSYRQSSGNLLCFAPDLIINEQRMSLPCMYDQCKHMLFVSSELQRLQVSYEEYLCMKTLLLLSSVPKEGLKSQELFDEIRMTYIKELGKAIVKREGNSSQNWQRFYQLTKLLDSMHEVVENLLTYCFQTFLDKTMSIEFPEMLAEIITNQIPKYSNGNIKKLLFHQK
Experimental: D. Gluocorticoid receptor of thymus of rats
Male Sprague-Dawley EPOS rats weighing 160 to 200 g were surrenalectomized and the animals were killed 4 to 8 days later. The thymus were removed and homogenized at 0° C. in a buffered TS solution of 10 mM, Tris, 0.25M of Saccharose, 2 mM of dithiothreitol HCl for a pH of 7.4 using a polytetrafluoroethylene-glass Potter at a rate of 1 g of tissue per 10 ml of TS. […] The concentration of tied tritiated dexamethasone (B) was measured for each incubate by the adsorption on carbon-dextran technique.
as §1, §2

[3] = biological target: T3, Estrogen receptor of uterus of mice (Mus musculus, UniProt P19785); assay: Estrogen receptor binding (displacement of tritiated estradiol); conditions: for agonist or antagonistic activity to estrogens: concluded from receptor affinity
T3 construct: the uterus were removed and homogenized at 0° C; from tissue; host or cells: mouse uterus, 105,000 g supernatant (immature females 18 to 21 days old)
T3 sequence (P19785 1-599): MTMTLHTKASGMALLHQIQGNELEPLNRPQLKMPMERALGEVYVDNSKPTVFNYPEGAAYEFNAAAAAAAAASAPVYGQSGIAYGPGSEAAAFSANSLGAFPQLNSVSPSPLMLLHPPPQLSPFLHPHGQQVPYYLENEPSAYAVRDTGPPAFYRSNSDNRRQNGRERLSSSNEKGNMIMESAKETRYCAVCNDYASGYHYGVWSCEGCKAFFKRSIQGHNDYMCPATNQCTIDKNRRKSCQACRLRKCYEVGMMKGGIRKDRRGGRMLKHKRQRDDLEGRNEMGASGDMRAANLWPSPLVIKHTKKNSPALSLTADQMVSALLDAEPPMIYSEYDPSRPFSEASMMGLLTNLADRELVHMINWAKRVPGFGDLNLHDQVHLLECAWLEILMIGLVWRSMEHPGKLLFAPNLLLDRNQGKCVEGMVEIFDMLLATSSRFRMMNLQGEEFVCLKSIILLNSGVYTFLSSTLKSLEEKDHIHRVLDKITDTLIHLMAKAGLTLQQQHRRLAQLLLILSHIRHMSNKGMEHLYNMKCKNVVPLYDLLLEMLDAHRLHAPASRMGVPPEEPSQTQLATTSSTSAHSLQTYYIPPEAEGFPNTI
Experimental: E. Estrogen receptor of uterus of mice
Immature female mice 18 to 21 days old were killed and the uterus were removed and homogenized at 0° C. with a polytetrafluoroethylene-glass Potter in a buffered TS solution consisting of 10 mM, Tris, 0125M Saccharose, HCl for a pH of 7.4 at a rate of 1 g of tissue per 25 ml of TS. The homogenate was then ultracentrigued at 105,000 g for 90 minutes at 0° C. and aliquoits of the resulting […] were incubated at 0° C. for a time (t) with a constant concentration (T) of tritiated estradiol in the presence of increasing concentrations (0 to 1000×10^-9 M) of either cold estradiol or cold test compound. The concentration of tied tritiated estradiol (B) was measured for each incubate by the technique of adsorption on carbon-dextran.
as §1, §2

uterine endometrium [4] = assay: Progestomimetic activity, oral, change in uterine endometrium (McPhail); assay type: in vivo, immature female rabbits; conditions: progesterone 0.2 mg/kg subcutaneously
Experimental: (§3) IV. Progestomimetic and Anti-progestomimetic Activity
(§4) a) Groups of immature female rabbits weighing about 1 kg had administered to them subcutaneously from day 1 to day 5, 5 μg of estradiol. The product tested was afterward administered orally from day 8 to day 11 in a volume of 0.5 cm^3 of water containing 0.5% of carboxymethyl cellulose and 0.2% of Tween. On day 12, the rabbits were sacrificed, their uteruses were retained and fixed in Bouin's solution and histologically studied.
(§5) The changes in the uterine endometrium were noted according to the method of McPhail.

uterine endometrium [5] = assay: Anti-progestomimetic activity versus progesterone, oral, change in uterine endometrium (McPhail); assay type: in vivo, immature female rabbits; conditions: progesterone 0.2 mg/kg subcutaneously, alone
Experimental: as §3, §4, §5

uterine endometrium [6] = assay: Anti-progestomimetic activity versus progesterone, intrauterine, change in uterine endometrium (McPhail); assay type: in vivo, immature female rabbits; conditions: progesterone alone 10 μg/rabbit, method of McPhail
Experimental: Groups of three immature female rabbits weighing about 1 kg were topically treated on the dorsal skin with 25 μg of estradiol in 10 μl of ethanol on day 1. On day 4 the product to be tested dissolved in 0.1 ml, of sesame oil containing 5% benzyl alcohol was introduced into a part of the uterus isolated between two ligatures. On the sixth day the animals were sacrificed, their uteruses retained and fixed in Bouin's solution for histological examination. Changes in the uterine endometrium were noted after the method of McPhail.

Structure (SMILES)	relative affinity of tieing (ARL), Androgen ([1]; incubation 1/2H at 0° C.)	relative affinity of tieing (ARL), Androgen ([1]; incubation 24 H at 0° C.)	relative affinity of tieing (ARL), Glucocorticoid [2]	agonist or antagonistic activity to estrogens [3]	relative affinity of tieing (ARL), Estrogen ([3]; incubation 2 H at 0° C.)	relative affinity of tieing (ARL), Estrogen ([3]; incubation 5 H (25° C.))	CHANGE IN THE ENDOMETRIUM (uterine endometrium [4])	CHANGE IN THE ENDOMETRIUM (uterine endometrium [5])	CHANGE IN THE ENDOMETRIUM (uterine endometrium [6])
CN(C)CCOc1ccc([C@H]2C[C@]3(C)[C@@H](O)CC[C@H]3[C@@H]3CCc4cc(O)ccc4[C@H]32)cc1 [Example 13, 11β-[4-(2-dimethylaminoethoxy)-phenyl]-Δ^1,3,5(10) -estratriene-3,17β-diol]	5	6	3,9	present an agonist or antagonistic activity to estrogens	78	239	–	–	–
CN(C)CCOc1ccc2c(c1)CC[C@@H]1[C@@H]2[C@@H](c2ccccc2)C[C@]2(C)[C@@H](O)CC[C@@H]12 [Example 15, 3-(2-dimethylamino-ethoxy)-11β-phenyl-Δ^1,3,5(10) -estratriene-17β-ol]	1,3	0,2	2	–	0,1	0,1	–	–	–
CN(C)CCOc1ccc([C@H]2C[C@]3(C)[C@@H](O)CC[C@H]3[C@@H]3CCc4ccccc4[C@H]32)cc1 [Example 14, 11β-[4-(2-dimethylaminoethoxy)-phenyl]-Δ^1,3,5(10) -estratriene-17β-ol]	10,6	0,5	0,4	present an agonist or antagonistic activity to estrogens	4,1	1,4	–	–	–
CC(=O)[C@H]1CC[C@H]2[C@@H]3CCC4=CC(=O)CC[C@]4(C)[C@H]3CC[C@]12C [Progesterone, progesterone, reference compound]	–	–	–	–	–	–	3.2 McPHAIL UNTS	3.0 McPHAIL UNTS	2.7
